# Target: human activated kallikrein enzyme (Homo sapiens (Human), UniProt P03952)
# Test: Plasma kallikrein inhibition assay with fluorogenic peptide substrate, 500 pM activated kallikrein format
# Type: biochemical
# Conditions: 500 pM activated kallikrein; 300 uM Pro-Phe-Arg-7-amido-4-methylcoumarin substrate; 30 min preincubation, 10 min reaction at RT; read-out: Primary Dose Response Assay: Average EC50
# Procedure, shortened: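 Human activated kallikrein (500 pM format) was preincubated 30 min at RT with inhibitor in 20 mM Tris pH 7.5, 150 mM NaCl, 1 mM EDTA, 0.1% PEG-400, 0.1% Triton X-100. Reactions then ran 10 min at RT with 300 uM Pro-Phe-Arg-AMC. Fluorescence was read at ex 380/em 460 nm.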
# Chain of human activated kallikrein enzyme (P03952 391-638): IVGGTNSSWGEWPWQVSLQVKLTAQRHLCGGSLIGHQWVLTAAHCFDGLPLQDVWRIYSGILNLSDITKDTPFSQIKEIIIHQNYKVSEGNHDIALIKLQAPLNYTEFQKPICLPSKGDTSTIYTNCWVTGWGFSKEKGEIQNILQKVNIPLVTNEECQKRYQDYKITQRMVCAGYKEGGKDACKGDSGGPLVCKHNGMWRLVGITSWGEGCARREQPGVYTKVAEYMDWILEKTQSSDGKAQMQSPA
# Chain of human activated kallikrein enzyme (P03952 20-390 partner): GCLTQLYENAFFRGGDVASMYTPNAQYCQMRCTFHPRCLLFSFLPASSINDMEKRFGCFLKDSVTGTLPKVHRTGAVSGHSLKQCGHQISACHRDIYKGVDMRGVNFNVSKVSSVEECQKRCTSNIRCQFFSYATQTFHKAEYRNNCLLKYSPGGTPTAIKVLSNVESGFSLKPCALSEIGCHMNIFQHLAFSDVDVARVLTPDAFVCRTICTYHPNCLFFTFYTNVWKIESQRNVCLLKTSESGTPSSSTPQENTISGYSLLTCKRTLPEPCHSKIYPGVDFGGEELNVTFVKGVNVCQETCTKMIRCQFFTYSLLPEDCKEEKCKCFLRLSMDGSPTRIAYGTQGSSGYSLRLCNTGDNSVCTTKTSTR
row,EC50 [nM],Compound
1,1 to 10,"COc1ccc(-c2cnc(C(=O)O)nc2)c(CNC(=O)c2cn(Cc3cn4cc(C5CC5)ccc4n3)nn2)c1F [Example I-74, 5-(2-((1-((6-cyclopropylimidazo[1,2-a]pyridin-2-yl)methyl)-1H-1,2,3-triazole-4-carboxamido)methyl)-3-fluoro-4-methoxyphenyl)pyrimidine-2-carboxylic Acid]"
2,1 to 10,"COC(=O)c1ncc(-c2ccc(OC)c(F)c2CNC(=O)c2cn(Cc3cn4cc(C5CC5)ccc4n3)nn2)cn1 [Example I-75, Methyl 5-(2-((1-((6-cyclopropylimidazo[1,2-a]pyridin-2-yl)methyl)-1H-1,2,3-triazole-4-carboxamido)methyl)-3-fluoro-4-methoxyphenyl)pyrimidine-2-carboxylate]"
3,> 7100,"O=C(NCc1cc2ccc(Cl)cc2s1)c1cn(Cc2cn3cc(C4CC4)ccc3n2)nn1 [Example I-77, N-((6-chlorobenzo[b]thiophen-2-yl)methyl)-1-((6-cyclopropylimidazo[1,2-a]pyridin-2-yl)methyl)-1H-1,2,3-triazole-4-carboxamide]"
4,100 to 2000,"Cc1c(Cl)ccc(-n2cnnn2)c1CNC(=O)c1cn(Cc2cn3cc(C4CC4)ccc3n2)nn1 [Example I-80, N-(3-chloro-2-methyl-6-(1H-tetrazol-1-yl)benzyl)-1-((6-cyclopropylimidazo[1,2-a]pyridin-2-yl)methyl)-1H-1,2,3-triazole-4-carboxamide]"
5,≤ 1,"COc1ccc(-n2cnnn2)c(CNC(=O)c2cn(Cc3cn4cc(C5CC5)cc(CC(C)(C)C(=O)O)c4n3)nn2)c1F [Example I-81, 3-(6-cyclopropyl-2-((4-((2-fluoro-3-methoxy-6-(1H-tetrazol-1-yl)benzyl)carbamoyl)-1H-1,2,3-triazol-1-yl)methyl)imidazo[1,2-a]pyridin-8-yl)-2,2-dimethylpropanoic acid]"
6,10 to 100,"CCc1ccc(-n2cnnn2)c(CNC(=O)c2cn(Cc3cn4cc(C5CC5)ccc4n3)nn2)c1F [Example I-83, 1-((6-cyclopropylimidazo[1,2-a]pyridin-2-yl)methyl)-N-(3-ethyl-2-fluoro-6-(1H-tetrazol-1-yl)benzyl)-1H-1,2,3-triazole-4-carboxamide]"
7,100 to 2000,"O=C(NCc1ccc2sccc2c1)c1cn(Cc2cn3cc(C4CC4)ccc3n2)nn1 [Example I-84, N-(benzo[b]thiophen-5-ylmethyl)-1-((6-cyclopropylimidazo[1,2-a]pyridin-2-yl)methyl)-1H-1,2,3-triazole-4-carboxamide]"
8,10 to 100,"COC(=O)c1ccc(-c2ccc(OC)c(F)c2CNC(=O)c2cn(Cc3cn4cc(C5CC5)ccc4n3)nn2)cc1 [Example I-87, Methyl 2′-((1-((6-cyclopropylimidazo[1,2-a]pyridin-2-yl)methyl)-1H-1,2,3-triazole-4-carboxamido)methyl)-3′-fluoro-4′-methoxy-[1,1′-biphenyl]-4-carboxylate]"
9,≤ 1,"CCOC(=O)CCc1cc(C2CC2)cn2cc(Cn3cc(C(=O)NCc4c(-n5cnnn5)ccc(OC)c4F)nn3)nc12 [Example I-89, ethyl 3-(6-cyclopropyl-2-((4-((2-fluoro-3-methoxy-6-(1H-tetrazol-1-yl)benzyl)carbamoyl)-1H-1,2,3-triazol-1-yl)methyl)imidazo[1,2-a]pyridin-8-yl)propanoate]"
10,≤ 1,"O=C(NCc1c(-n2cnnn2)ccc(Br)c1F)c1cn(Cc2cn3cc(C4CC4)ccc3n2)nn1 [Example I-90, N-(3-bromo-2-fluoro-6-(1H-tetrazol-1-yl)benzyl)-1-((6-cyclopropylimidazo[1,2-a]pyridin-2-yl)methyl)-1H-1,2,3-triazole-4-carboxamide]"
11,≤ 1,"COc1ccc(-n2cnnn2)c(CNC(=O)c2cn(Cc3cn4cc(C5CC5)cc(CCC(=O)O)c4n3)nn2)c1F [Example I-92, 3-(6-cyclopropyl-2-((4-((2-fluoro-3-methoxy-6-(1H-tetrazol-1-yl)benzyl)carbamoyl)-1H-1,2,3-triazol-1-yl)methyl)imidazo[1,2-a]pyridin-8-yl)propanoic acid]"
12,≤ 1,"COc1ccc(-n2cnnn2)c(CNC(=O)c2cn(Cc3cn4cc(C5CC5)cc(C(F)(F)F)c4n3)nn2)c1F [Example I-93, 1-((6-cyclopropyl-8-(trifluoromethyl)imidazo[1,2-a]pyridin-2-yl)methyl)-N-(2-fluoro-3-methoxy-6-(1H-tetrazol-1-yl)benzyl)-1H-1,2,3-triazole-4-carboxamide]"
13,≤ 1,"COc1ccc(-n2cnnn2)c(CNC(=O)c2nnc(Cc3cn4cc(C5CC5)ccc4n3)o2)c1F [Example I-94, 5-((6-cyclopropylimidazo[1,2-a]pyridin-2-yl)methyl)-N-(2-fluoro-3-methoxy-6-(1H-tetrazol-1-yl)benzyl)-1,3,4-oxadiazole-2-carboxamide]"

# The remaining lines, values behind:
row,Compound,EC50 [nM]
1,"COc1ncc(C#N)c(CNC(=O)c2cn(Cc3cn4cc(C5CC5)ccc4n3)nn2)c1F [Example I-72, N-((5-cyano-3-fluoro-2-methoxypyridin-4-yl)methyl)-1-((6-cyclopropylimidazo[1,2-a]pyridin-2-yl)methyl)-1H-1,2,3-triazole-4-carboxamide]",100 to 2000
2,"COc1ccc(-n2cc(C)c(C)n2)c(CNC(=O)c2cn(Cc3cn4cc(C5CC5)ccc4n3)nn2)c1F [Example I-73, 1-((6-cyclopropylimidazo[1,2-a]pyridin-2-yl)methyl)-N-(6-(3,4-dimethyl-1H-pyrazol-1-yl)-2-fluoro-3-methoxybenzyl)-1H-1,2,3-triazole-4-carboxamide]",10 to 100
3,"COc1ccc(-n2ccnn2)c(CNC(=O)c2cn(Cc3cn4cc(C5CC5)ccc4n3)nn2)c1F [Example I-76, 1-((6-cyclopropylimidazo[1,2-a]pyridin-2-yl)methyl)-N-(2-fluoro-3-methoxy-6-(1H-1,2,3-triazol-1-yl)benzyl)-1H-1,2,3-triazole-4-carboxamide]",≤ 1
4,"O=C(NCc1c(-n2cnnn2)ccc(C2CC2)c1F)c1cn(Cc2cn3cc(C4CC4)ccc3n2)nn1 [Example I-78, N-(3-cyclopropyl-2-fluoro-6-(1H-tetrazol-1-yl)benzyl)-1-((6-cyclopropylimidazo[1,2-a]pyridin-2-yl)methyl)-1H-1,2,3-triazole-4-carboxamide]",10 to 100
5,"O=C(NCc1c(C(F)F)ccc(Cl)c1F)c1cn(Cc2cn3cc(C4CC4)ccc3n2)nn1 [Example I-79, N-(3-chloro-6-(difluoromethyl)-2-fluorobenzyl)-1-((6-cyclopropylimidazo[1,2-a]pyridin-2-yl)methyl)-1H-1,2,3-triazole-4-carboxamide]",10 to 100
6,"CCOC(=O)C(C)(C)Cc1cc(C2CC2)cn2cc(Cn3cc(C(=O)NCc4c(-n5cnnn5)ccc(OC)c4F)nn3)nc12 [Example I-85, ethyl 3-(6-cyclopropyl-2-((4-((2-fluoro-3-methoxy-6-(1H-tetrazol-1-yl)benzyl)carbamoyl)-1H-1,2,3-triazol-1-yl)methyl)imidazo[1,2-a]pyridin-8-yl)-2,2-dimethylpropanoate]",≤ 1
7,"COc1ccc(-c2ccnnc2)c(CNC(=O)c2cn(Cc3cn4cc(C5CC5)ccc4n3)nn2)c1F [Example I-86, 1-((6-cyclopropylimidazo[1,2-a]pyridin-2-yl)methyl)-N-(2-fluoro-3-methoxy-6-(pyridazin-4-yl)benzyl)-1H-1,2,3-triazole-4-carboxamide]",1 to 10
8,"COc1ccc(-c2ccc(C(=O)O)cc2)c(CNC(=O)c2cn(Cc3cn4cc(C5CC5)ccc4n3)nn2)c1F [Example I-88, 2′-((1-((6-cyclopropylimidazo[1,2-a]pyridin-2-yl)methyl)-1H-1,2,3-triazole-4-carboxamido)methyl)-3′-fluoro-4′-methoxy-[1,1′-biphenyl]-4-carboxylic acid]",1 to 10
9,"COc1ccc(-n2cnnn2)c(CNC(=O)c2cn(Cc3cn4cc(C5CC5)cc(C5(F)COC5)c4n3)nn2)c1F [Example I-91, 1-((6-cyclopropyl-8-(3-fluorooxetan-3-yl)imidazo[1,2-a]pyridin-2-yl)methyl)-N-(2-fluoro-3-methoxy-6-(1H-tetrazol-1-yl)benzyl)-1H-1,2,3-triazole-4-carboxamide]",≤ 1
10,"COc1ccc(-n2cccn2)c(CNC(=O)c2cn(Cc3cn4cc(C5CC5)ccc4n3)nn2)c1F [Example I-95, 1-((6-cyclopropylimidazo[1,2-a]pyridin-2-yl)methyl)-N-(2-fluoro-3-methoxy-6-(1H-pyrazol-1-yl)benzyl)-1H-1,2,3-triazole-4-carboxamide]",1 to 10
11,"COc1ccc(-n2cnnc2)c(CNC(=O)c2cn(Cc3cn4cc(C5CC5)ccc4n3)nn2)c1F [Example I-96, 1-((6-cyclopropylimidazo[1,2-a]pyridin-2-yl)methyl)-N-(2-fluoro-3-methoxy-6-(4H-1,2,4-triazol-4-yl)benzyl)-1H-1,2,3-triazole-4-carboxamide]",1 to 10
12,"COc1ccc(-c2nnco2)c(CNC(=O)c2cn(Cc3cn4cc(C5CC5)ccc4n3)nn2)c1F [Example I-97, 1-((6-cyclopropylimidazo[1,2-a]pyridin-2-yl)methyl)-N-(2-fluoro-3-methoxy-6-(1,3,4-oxadiazol-2-yl)benzyl)-1H-1,2,3-triazole-4-carboxamide]",10 to 100
13,"O=C(NCc1c(-n2cnnn2)ccc(OC(F)(F)F)c1F)c1cn(Cc2cn3cc(C4CC4)ccc3n2)nn1 [Example I-98, 1-((6-cyclopropylimidazo[1,2-a]pyridin-2-yl)methyl)-N-(2-fluoro-6-(1H-tetrazol-1-yl)-3-(trifluoromethoxy)benzyl)-1H-1,2,3-triazole-4-carboxamide]",100 to 2000
14,"COc1ccc(-n2cnnn2)c(CNC(=O)c2cn(Cc3cn4cc(C5CC5)cc(F)c4n3)nn2)c1F [Example I-99, 1-((6-cyclopropyl-8-fluoroimidazo[1,2-a]pyridin-2-yl)methyl)-N-(2-fluoro-3-methoxy-6-(1H-tetrazol-1-yl)benzyl)-1H-1,2,3-triazole-4-carboxamide]",≤ 1

# From patent US11787796B2, “Plasma Kallikrein inhibitors and uses thereof” (Takeda Pharmaceutical Company Limited, priority 2019, dated 2023)
